Test results: the NIST ThermoML archive (doi:10.1016/j.fluid.2013.10.060)
Numbers after ± are expanded uncertainties.

What was measured:
[1] = Boiling temperature at pressure P; conditions: 101.33 kPa; Liquid; Ebulliometric method (Recirculating still)
[2] = refractive index (Na D-line) (dimensionless); conditions: 298.15 K; 101.33 kPa; Liquid; Standard Abbe refractometry
[3] = for mass density: 298.15 K, 101.33 kPa, Liquid, Vibrating tube method; for surface tension liquid-gas: 303.15 K, Maximal bubble pressure

| SMILES | Boiling temperature at pressure P [1] [°C] | refractive index [2] | mass density [3] [kg/m3] | surface tension liquid-gas [3] [mN/m] |
| --- | --- | --- | --- | --- |
| C1CCOCC1 [tetrahydropyran] | 88.21 ± 0.02 | 1.42 ± 0.00031 | 879.03 ± 0.13 | 27.1 ± 0.2 |
| CCO [ethanol] | 78.30 ± 0.02 | 1.36068 ± 0.00031 | 785.09 ± 0.15 | 21.7 ± 0.18 |
| CCCCCC [hexane] |  | 1.37374 ± 0.00031 | 655.19 ± 0.18 | 17.4 ± 0.16 |
